How the values were obtained:
[1] = system: patient with stage 3 idiopathic macular hole; assay: Treatment of idiopathic macular hole: intravitreal urea followed by expandable gas; assay type: in vivo, human; conditions: for visual acuity: baseline 20/400; for size of the macular hole: baseline 450 μm
Procedure: The macular defect was classified as a stage 3 macular hole, and the patient's visual acuity was recorded at 20/400 at a baseline time point prior to urea treatment. […] Seven days after the intravitreal urea injection the patient was administered an intravitreal injection of 0.3 ml of expandable gas (C3 F8).
One week after administration of the gas, the size of the macular hole had decreased from 450 μm to a smaller size of 200 μm and the patient's vision had improved from a baseline visual acuity of 20/400 to 20/80. Two weeks post treatment the size of the macular hole had decreased from 450 μm to a smaller size of 90 μm and the patient's vision had improved from a baseline visual Acuity of 20/400 to 20170. Four weeks post treatment the size of the macular hole had decreased from 450 μm to a smaller size of 60 μm and the patient's vision had improved from a baseline visual acuity of 20/400 to 20/60.

[2] = system: non sighted patients with optic nerve damage caused by trauma and/or glaucoma; assay: Treatment of neuropathies, double masked placebo controlled dose escalation study; assay type: in vivo, human
Procedure: In accordance with the present disclosure, urea, thiourea, guanidine and possibly the other compounds of General Formula I above are effective to treat neuropathies 5 (e.g., disorders or damage to nerves). In this example, 33 non sighted patients with optic nerve damage caused by trauma and/or glaucoma, with visual acuity of light perception or no light perception were administered a urea-containing formulation, as disclosed herein. The study was a double masked placebo controlled, randomized, dose escalation study conducted with 33 human patients with optic nerve damage. Patients were randomized into 5 groups, Group 1 of 5 patients. Group 2 of 4 patients, Group 3 of 8 patients, Group 4 of 8 patients and Group 5 of 8 patients. Each patient received a single intravitreal injection of 50 UI of an aqueous treatment solution, as follows:
In Six patients the vision improved from No light perception to light perception, in 2 patients the vision improved from light perception to count fingers at 12 inches, in 2 patients the vision improved from no light perception to 20 20/400 and 20/800 vision and in 2 patients the vision improved from light perception to 20/600 and 20/800 vision. No patients in the placebo group reported any improvement in best corrected visual acuity as measured by ETDRS charts.

[3] = system: human patients requiring pars plana vitrectomy; assay: Treatment as adjunct to vitrectomy; assay type: in vivo
Procedure: In this example, five human patients requiring pars plana vitrectomy for various indications were treated one week prior to vitrectomy with a single intravitreal injection of 100 μl of a urea in aqueous solution. The formulation contained 6% urea, 0.9% sodium chloride, and sterile water for injection (qs 100%). All patients underwent routine vitrectomies 8 to 10 days after the urea injection. The minimum waiting time between the urea injection and the vitrectomy procedure is about 1 day to 3 days.
No vitrectomy cutter was used.

[4] = system: non-diabetic patients with symptomatic VMA; assay: Multiple intravitreal injections of urea: overall (pooled) results; assay type: in vivo, human
Procedure: (§1) A study was conducted to examine effect of multiple intravitreal injections of small molecule formulation of urea on induction of posterior vitreous detachment (PVD).
(§2) Formulation: Sterile lyophilized Urea, USP-NF in buffered isotonic saline for intravitreal injections. Injectable: Reconstituted with 300 μL sterile water for injection. Dosage form: 100 μL dose contains 18 mg Urea, USP-NF (18% w/v) in glass vial. Storage: room temperature. Stability: stable >24 mo for lyophilized form. […] PVD rate: 25% targeted efficacy.
(§3) U.S. study design: 2:1 randomized, Phase Ib, dose ranging & safety study. Patient population: 30 non-diabetic patients with symptomatic VMA. Treatment: high dose arm (Day 0: 100 μL 18% w/v injection; Day 30: 100 μL 18% w/v injection for all unresolved patients); low dose arm (Day 0: 100 μL 9% w/v injection; Day 30: 100 μL 9% w/v injection for all unresolved patients). Follow-up: days 0, 2, 8, 15, 30, 60, 90 and 180.
(§4) Ex-U.S. study design: 3:1 randomized, controlled, Phase Ib, POC & safety study. Patient population: non-diabetic patients with symptomatic VMA. Treatment arm: 20 patients. Control arm: 5 patients. Treatment: high dose arm (Day 0: 100 μL 36% w/v injection; Day 30: 100 μL 36% w/v injection for all unresolved patients); low dose arm (Day 0: 100 μL 18% w/v injection; Day 30: 100 μL 18% w/v injection for all unresolved patients). Follow-up: days 0, 2, 8, 15, 30, 45, 60 and 90.
FIGS. 10 and 11 show the preliminary US and ex-US results, respectively. For the US study, 4 of 10 patients in high-dose group met primary endpoint, 1 of 7 patients in low-dose group met primary endpoint. For the ex-US study, 5 of 11 patients in high-dose group met primary endpoint, 3 of 6 patients in low-dose group met primary endpoint.

[5] = system: human patients with diabetes-related nonclearing vitreous hemorrhage; assay: Treatment of vitreous hemorrhage; assay type: in vivo; conditions: within 2 to 4 weeks after single intravitreal injection of 6% urea, 0.9% sodium chloride; seven patients
Procedure: The formulations and treatments disclosed herein are also effective to treat vitreous hemorrhage. In this example, seven human patients were treated for diabetes-related nonclearing vitreous hemorrhage. Each patient received a single intravitreal injection of 1001l of a formulation containing urea. The formulation used in this example contained 6% urea, 0.9% sodium chloride, and sterile water for injection (qs 100%).

[6] = cited from earlier work
[7] = system: non-diabetic patients with symptomatic VMA; assay: Ex-U.S. Phase Ib study: induction of PVD by multiple intravitreal injections of urea; assay type: in vivo, human; conditions: preliminary
Procedure: as §1, §2, §4

[8] = system: patients with long standing optic nerve damage related to optic nerve tumors; assay: Treatment of optic nerve damage related to optic nerve tumors; assay type: in vivo, human
Procedure: In another study, three patients with long standing (6 months or longer) optic nerve damage related to optic nerve tumors were treated with a single intravitreal injection of 100 μl of a 6% urea containing formulation. All three patient treated reported a significant improvement in visual acuity after treatment. The patients' visual acuity improved from an average of Count Fingers at 12 inches to 20/200.

[9] = system: human patients with retinitis pigmentosa; assay: Treatment of retinitis pigmentosa, double masked placebo controlled dose escalation study; assay type: in vivo
Procedure: A double masked placebo controlled, randomized, dose escalation study was done in 32 human patients with retinitis pigmentosa. All patients were treated with a single intravitreal injection of 50 μl of a urea-containing formulation. Three groups of patients received different concentrations of urea. One group received a formulation containing 1.5% urea, 0.9% sodium chloride, and sterile water for injection. A second group received an identical formulation except the formulation contained 3.0% urea. A third group received an identical formulation except the formulation contained 6.0% urea. A placebo group received 50 μl of 0.9% sodium chloride.
Forty-seven percent of the patient reported an increase of at least 3 lines of best corrected visual acuity measured by ETDRS charts, whereas, only 14% of the placebo patients reported an increase of at least 3 lines of best corrected visual acuity measured by ETDRS charts.
There was no dramatic increase in the visual field of the placebo control patients.

[10] = system: non-diabetic patients with symptomatic VMA; assay: U.S. Phase Ib study: induction of PVD by multiple intravitreal injections of urea; assay type: in vivo, human; conditions: preliminary
Procedure: as §1, §2, §3

[11] = Storage stability of lyophilized urea formulation; assay type: physicochemical; conditions: storage at room temperature
Procedure: as §2

[12] = system: human patients with single or multiple retinal tears; assay: Treatment of retinal tears: intravitreal urea 3 days before pneumatic Retinopexy; assay type: in vivo
Procedure: All patients received pneumatic Retinopexy treatment 3 days after intravitreal injection of 1.5 mg of urea in 50 μl of aqueous solution prepared according to the formulation set forth in Table II above. […] Within 3-7 days after urea injection, 11/12 patients had developed PVD, only 1/12 patients had not developed PVD. Within 90 days of the urea injection that one patient also developed PVD.
Within 3 days of treatment 9/12 patients had complete retinal reattachment and macular attachment, and within 7 days all 12 patients had complete retinal reattachment and macular attachment. […]
(Tornambe, P. E. et. al. Opthalmology, 1989; 96: 772-783).

[13] = system: patients with nonproliferative diabetic retinopathy; assay: Treatment of diabetic retinopathy; assay type: in vivo, human; conditions: within 2-4 weeks after single intravitreal injection of 3% urea, 0.9% sodium chloride; 69 patients
From the text: Sixty-nine patients with nonproliferative diabetic retinopathy were each administered a single intravitreal injection of 50 UI of a urea formulation containing 3% urea, 0.9% sodium chloride, and sterile water for injection.
The vitreous liquefaction and vitreous collapse in non-proliferative diabetic retinopathy patients would inhibit the growth and proliferation of the blood vessels, and thus inhibit the progression of diabetic retinopathy. All 69 (of the) patients were followed for six months following the procedure.

[14] = system: vitreous and retina of injected eyes; conditions: cited from earlier work
[15] = one week after administration of the gas

In the case of `NC(N)=O` [urea], the “adverse effects of the intravitreal injection, ophthalmoscopic and biomicroscopic examination” value ([1]; 1.5 mg urea, Table III formulation) is reported as “no adverse effects”, the visual acuity ([1]; four weeks post treatment) is reported as 20/60 and the “size of the macular hole” value ([1]; four weeks post treatment) is reported as 60 μm. The visual acuity [1, 15] was 20/80, the “size of the macular hole” value [1, 15] was 200 μm and the “time to complete Posterior Vitreous Detachment (PVD)” value ([1]; single intravitreal injection 1.5 mg urea, Table III formulation, one patient) was ≤ 7 days. The “size of the macular hole” value ([1]; two weeks post treatment) was 90 μm, the “patients whose vision improved from No light perception to light perception” value ([2]; in vivo) was “Six” and the “patients whose vision improved from light perception to 20/600 and 20/800 vision” value ([2]; in vivo) was 2 patients. The “patients whose vision improved from light perception to count fingers at 12 inches” value ([2]; in vivo) was 2 patients, the “patients whose vision improved from no light perception to 20/400 and 20/800 vision” value ([2]; in vivo) was 2 patients and the “patients with an increase of best corrected visual acuity (ETDRS charts)” value ([2]; single intravitreal injection of 0.2%, 1.5%, 3.0% or 6.0% urea, no improvement in placebo group) was “Forty-three”. For the same compound, the “decrease in surgical time relative to patients who did not receive urea” value ([3]; 6% urea, 100 μl intravitreal one week prior to vitrectomy) was 70%, the “vitreous status at the time of vitrectomy” value ([3]; by one week after single intravitreal 100 μl of 6% urea, 0.9% sodium chloride, five patients) was “complete vitreous liquefaction and collapse” and the efficacy ([4]; after a second injection) was 40%. The “% resolution of VMA” value ([4]; non-ERM) was 44%, the “safety: drug related adverse effects” value ([4]; up to 4 injections) was “no drug related adverse effects” and the efficacy ([4]; with one injection) was 30%. For the same compound, the “patients with clearance of vitreous hemorrhage sufficient to treat the retina with photocoagulation” value [5] was “All seven”, the pH of solution ([6]; 10% water solution) was 7.2 and the “stability of the solid” value ([6]; stored under dry conditions) was “stable at room temperature”. The “patients who met primary endpoint” value ([7]; high-dose group, 100 μL 36% w/v) was 5 of 11, the “patients who met primary endpoint” value ([7]; low-dose group, 100 μL 18% w/v) was 3 of 6 and the “average visual acuity after treatment” value ([8]; from an average of Count Fingers at 12 inches) was 20/200. For the same compound, the “patients reporting a significant improvement in visual acuity after treatment” value ([8]; single intravitreal 100 μl of 6% urea, three patients) was “All three”, the “patients with an increase of at least 3 lines of best corrected visual acuity (ETDRS charts)” value ([9]; single intravitreal 50 μl of 1.5%, 3.0% or 6.0% urea, placebo 14%) was “Forty-seven” and the “average improvement in the patient's visual field” value ([9]; urea-treated patients) was 10 degrees. For the same compound, the “patients who met primary endpoint” value ([10]; high-dose group, 100 μL 18% w/v) was 4 of 10, the “patients who met primary endpoint” value ([10]; low-dose group, 100 μL 9% w/v) was 1 of 7 and the “stability of lyophilized form” value [11] was > 24 mo. The “adverse effects of the intravitreal injection, ophthalmoscopic and biomicroscopic examination” value ([12]; 1.5 mg urea in 50 μl, Table II formulation, 12 patients) was “no adverse effects”, the “patients with improvement of more than 2 lines of visual acuity (11 letters)” value ([12]; 6 months post Retinopexy) was 64% and the “occurrence of new retinal tears with associated retinal detachment” value ([12]; follow up 90 days) was “none”. For the same compound, the “patients with improvement of more than 2 lines of visual acuity (11 letters)” value ([12]; time not printed in the sentence (1 month post Retinopexy by context)) was 64%, the “patients who developed PVD” value ([12]; within 3-7 days after urea injection) was 11/12 and the “patients with complete retinal reattachment and macular attachment” value ([12]; within 3 days of treatment) was 9/12. For the same compound, the “patients with complete retinal reattachment and macular attachment” value ([12]; within 7 days) was 12 patients and the “patients with complete vitreous liquefaction and collapse” value [13] was 69 patients.

In the case of Collagenase, the “reported adverse effect on the injected eye” value ([14]; dispase: 15 minutes after injection) is listed as “disrupt the outer layers of the retina” and the “reported effect on the vitreous” value ([14]; in vivo) is listed as “liquefy the vitreous”.

— patent US20180161291A1, “EXTENDED RELEASE UREA COMPOSITIONS” (Kato Pharmaceuticals, Inc., priority 2015, published 2018)
